The text below walks through data of ChEMBL document CHEMBL3091296, “Design, synthesis and biological evaluation of 3-benzyloxy-linked pyrimidinylphenylamine derivatives as potent HIV-1 NNRTIs” (Bioorg Med Chem, 2013).

Series [1] in a line: Selectivity index, ratio of CC50 for human MT4 cells to EC50 for wild-type HIV1 3B infected in MT4 cells. The class given is toxicity, cell-based. Particulars: read-out: Ratio CC50/EC50.
Series [2] deals with Human immunodeficiency virus 2. The experiment in a line: Antiviral activity against HIV2 ROD infected in MT4 cells assessed as reduction in virus-induced cytopathic effect after 5 days by MTT assay. The class given is functional, organism-based. Particulars: Human immunodeficiency virus 2, ISOLATE ROD, MT4, 120 h.
Series [3] in a line: Cytotoxicity against mock-infected human MT4 cells after 5 days by MTT assay. The series is classed as cell-based.
Series [4] deals with Human immunodeficiency virus 1. The experiment in a line: Antiviral activity against HIV1 harboring reverse transcriptase K103N/Y181C mutant infected in MT4 cells assessed as reduction in virus-induced cytopathic effect after 5 days by MTT assay. The series is classed as functional, organism-based. Particulars: Human immunodeficiency virus 1, MT4, 120 h. (In general: Cytopathic effects are the visible damage that an infection or toxin causes in cultured cells.)

Series [5] has as its system Human immunodeficiency virus 1. The experiment in a line: Antiviral activity against wild-type HIV1 3B infected in MT4 cells assessed as reduction in virus-induced cytopathic effect after 5 days by MTT assay. The series is classed as functional, organism-based. Particulars: Human immunodeficiency virus 1, 3B, MT4, 120 h.
The target of series [6] is Human immunodeficiency virus type 1 reverse transcriptase (Human immunodeficiency virus 1, UniProt Q72547). The series can be described thus: Inhibition of HIV-1 reverse transcriptase assessed as inhibition of biotin dUTP incorporation by primer extension assay.

pEC50, pIC50: −log10 of the molar value.

Consider `COc1ccnc(Nc2ccc(Cl)c(Oc3ccccc3)c2)n1`, for which the selectivity ratio in series [1] came out at 15.
With `COc1ccnc(Nc2ccc(Cl)c(OCc3ccc(C#N)cc3)c2)n1`, the figures for the pEC50 in series [2], in series [4] and in series [5] were less than 3.55, less than 3.55 and 4.77, respectively. This molecule came in with a CC50 at 120 h in series [3] of 283 µM. The selectivity ratio in series [1] is 17.
For the molecule `COc1ccnc(Nc2ccc(Cl)c(OCc3ccccc3C)c2)n1`, the values for the pEC50 in series [2], in series [4] and in series [5] were less than 5.06, less than 5.06 and 7.09, respectively. In addition, in series [3], the CC50 at 120 h was 8.8 µM. In series [1], the selectivity ratio amounted to 106.
With `COc1ccc(COc2cc(Nc3nccc(OC)n3)ccc2Cl)cc1`, the negative-log EC50 (pEC50) in series [2] was less than 3.54; in series [4], less than 3.54; in series [5], 5.11. In addition, the CC50 at 120 h in series [3] was not below 290 µM. Also, the selectivity ratio in series [1] is not below 37.
The molecule `COc1ccnc(Nc2ccc(Cl)c(OCc3ccc([N+](=O)[O-])cc3)c2)n1` showed a CC50 at 120 h in series [3] of more than 323 µM. In addition, the selectivity ratio in series [1] was more than 1. The pEC50 in series [5] is less than 3.49.
For the molecule `COC(=O)c1ccc(COc2cc(Nc3nccc(OC)n3)ccc2Cl)cc1`, the pEC50 in series [2] is less than 5.80; in series [5] it was less than 3.97. The same molecule came in with a CC50 at 120 h in series [3] not below 106 µM. The selectivity ratio in series [1] is less than 1.
For `COc1ccnc(Nc2ccc(Cl)c(OCc3ccc(C(N)=O)cc3)c2)n1`, the pEC50 in series [2] was less than 3.49; in series [4], less than 3.49; in series [5], 4.46. In series [3], this molecule displayed a CC50 at 120 h of more than 325 µM. Moreover, the selectivity ratio in series [1] was more than 9.
In the case of `COc1ccnc(Nc2ccc(Cl)c(OCc3cccc(Cl)c3)c2)n1`, the pEC50 in series [2] is less than 3.48; in series [4], less than 3.48; in series [5], 6.64. Further, the CC50 at 120 h in series [3] is more than 332 µM. Also, the selectivity ratio in series [1] was more than 1460.
For the molecule `COc1ccnc(Nc2ccc(Cl)c(OCc3ccc(Cl)cc3)c2)n1`, the pEC50 in series [2] was less than 4.02; in series [4], less than 4.02; in series [5], 5.11. The molecule also showed a CC50 at 120 h in series [3] of 95 µM. The selectivity ratio in series [1] amounted to 12.
For the molecule `COc1ccnc(Nc2ccc(Cl)c(OCc3ccc(Cl)cc3Cl)c2)n1`, the pEC50 in series [2] and in series [5] was less than 4.11 in each case. Also, the midpoint of cytotoxicity in series [3], the CC50 at 120 h, lay at 77 µM. The selectivity ratio in series [1] is less than 1.
`COc1ccnc(Nc2ccc(Cl)c(OCc3ccc(Cl)c(Cl)c3)c2)n1`: the pEC50 in series [2] and in series [5] was less than 3.52 each time. In series [3], this molecule gave a CC50 at 120 h of more than 304 µM. Besides, the selectivity ratio in series [1] was more than 1.
As to `COc1ccnc(Nc2ccc(Cl)c(OCc3ccccc3F)c2)n1`, the pEC50 was less than 4.38 in series [2], less than 4.38 in series [4] and 7.30 in series [5]. In series [3], the CC50 at 120 h worked out at 42 µM. Also, the selectivity ratio in series [1] stood at 777.
Regarding `COc1ccnc(Nc2ccc(Cl)c(OCc3cccc(F)c3)c2)n1`, the pEC50 in series [2] was less than 3.46; in series [4], less than 3.46; in series [5] it was 7.15. Further, in series [6], the negative logarithm of the IC50 (pIC50) is 5.82. Moreover, in series [3], the CC50 at 120 h is more than 347 µM. Also, the selectivity ratio in series [1] is more than 4870.
Consider `COc1ccnc(Nc2ccc(Cl)c(OCc3ccc(F)cc3)c2)n1`, for which the pEC50 in series [2] was less than 3.66; in series [4] it was less than 3.66; in series [5], 6.15. The same molecule came in with a CC50 at 120 h in series [3] of 218 µM. Further, in series [1], the selectivity ratio was found to be 309.
As to `COc1ccnc(Nc2ccc(Cl)c(OCc3ccccc3Br)c2)n1`, the pEC50 is less than 4.28 in series [2], less than 4.28 in series [4] and 6.48 in series [5]. This molecule yielded a CC50 at 120 h in series [3] of 52 µM. The selectivity ratio in series [1] came to 158.
For the molecule `COc1ccnc(Nc2ccc(Cl)c(OCc3cccc(Br)c3)c2)n1`, the pEC50 in series [2] is less than 3.53; in series [4], less than 3.53; in series [5] it was 6.12. The same molecule displayed a CC50 at 120 h in series [3] of more than 297 µM. In addition, the selectivity ratio in series [1] was more than 393.
Take `COc1ccnc(Nc2ccc(Cl)c(OCc3ccc(Br)cc3)c2)n1`: the pEC50 is less than 3.65 in series [2], less than 3.65 in series [4] and 4.64 in series [5]. The same molecule registered a CC50 at 120 h in series [3] of 224 µM. Moreover, the selectivity ratio in series [1] worked out at 10.
Regarding `COc1ccnc(Nc2ccc(Cl)c(OCc3ccccc3C#N)c2)n1`, the negative-log EC50 (pEC50) was less than 3.70 in series [2], less than 3.70 in series [4] and 6.82 in series [5]. In series [3], the 50% cytotoxic concentration (CC50) at 120 h turned out to be 199 µM. Moreover, the selectivity ratio in series [1] was 1290.
With `COc1ccnc(Nc2ccc(Cl)c(OCc3ccccc3Cl)c2)n1`, the figures for the pEC50 in series [2], in series [4] and in series [5] were less than 4.48, less than 4.48 and 6.64, respectively. In series [3], this molecule gave a CC50 at 120 h of 33 µM. In addition, the selectivity ratio in series [1] was determined as 143.
`COc1ccnc(Nc2ccc(Cl)c(OCc3ccccc3)c2)n1`: the figures for the pEC50 in series [2], in series [4] and in series [5] were less than 4.21, less than 4.21 and 7.12, respectively. In addition, it took 62 µM to reach half-maximal cytotoxicity in series [3] (CC50 at 120 h). Further, the selectivity ratio in series [1] is 833.
For the molecule `O=C1Nc2ccc(Cl)cc2[C@@](C#CC2CC2)(C(F)(F)F)O1` [EFAVIRENZ], the pEC50 in series [4] was 6.28; in series [5], 8.05. Besides, in series [1], the selectivity ratio is more than 693.
Turning to `Cc1ccnc2c1NC(=O)c1cccnc1N2C1CC1` [NEVIRAPINE], in series [3], the CC50 at 120 h is more than 15 µM. Further, the pEC50 was less than 5.30 in series [4] and 6.95 in series [5].

For orientation: pEC50 means −log10 of the EC50, conventionally taken in molar units. Usually CC50 stands for the concentration that lowers cell viability or growth by half. By pIC50 is commonly meant −log10 of the IC50, conventionally taken in molar units.
